Laboratory results published in BindingDB's records for doi:10.1021/jm010282t (Tohoku Pharmaceutical University, 2001).

These compounds were tested against T1, Aromatase (Homo sapiens, UniProt P11511) (assay: Aromatase Assay). Settings: pH 7.5; 37 °C.
T1 sequence (P11511 whole entry): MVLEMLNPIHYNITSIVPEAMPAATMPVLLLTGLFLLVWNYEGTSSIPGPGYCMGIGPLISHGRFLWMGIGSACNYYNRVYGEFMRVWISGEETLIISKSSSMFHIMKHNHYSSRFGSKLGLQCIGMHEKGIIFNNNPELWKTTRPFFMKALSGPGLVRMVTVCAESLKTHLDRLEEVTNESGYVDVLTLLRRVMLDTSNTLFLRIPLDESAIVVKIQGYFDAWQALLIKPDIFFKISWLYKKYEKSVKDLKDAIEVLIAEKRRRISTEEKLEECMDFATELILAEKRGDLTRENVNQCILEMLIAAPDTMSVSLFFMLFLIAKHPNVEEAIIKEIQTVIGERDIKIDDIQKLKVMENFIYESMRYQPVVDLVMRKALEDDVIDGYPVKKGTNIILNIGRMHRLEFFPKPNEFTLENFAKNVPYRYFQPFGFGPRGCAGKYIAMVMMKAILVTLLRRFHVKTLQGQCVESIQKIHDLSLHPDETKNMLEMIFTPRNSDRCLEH
Procedure: The enzyme activity was assayed by measuring the 3H-labeled H2O formed from [1beta-3H] Androstenedione during aromatization. After incubation, the reaction was terminated by CHCl3 extraction and centrifugation. Aliquots of the water phase were assayed for the presence of 3H2O by counting using a liquid scintillation spectrometer.

In order of rising IC50:
1. C[C@]12CCC3C(CCC4=CCCC[C@@]43CO)C1CCC2=O (stereo partly drawn) [(2S,15S)-2-(hydroxymethyl)-15-methyltetracyclo[8.7.0.0^{2,7}.0^{11,15}]heptadec-6-en-14-one]  0.049 µM
2. C[C@]12CCCCC1=CCC1C2CC[C@]2(C)C(=O)CCC12 (stereo partly drawn) [(2R,15S)-2,15-dimethyltetracyclo[8.7.0.0^{2,7}.0^{11,15}]heptadec-7-en-14-one]  0.66 µM
3. C[C@]12CCC3C(C[C@@H](O)C4=CCCC[C@@]43CO)C1CCC2=O (stereo partly drawn) [6beta,19-dihydroxyandrost-4-en-17-one]  0.94 µM
4. C[C@]12CCC3C(C[C@H](O)C4=CCCC[C@@]43CO)C1CCC2=O (stereo partly drawn) [(2S,8S,15S)-8-hydroxy-2-(hydroxymethyl)-15-methyltetracyclo[8.7.0.0^{2,7}.0^{11,15}]heptadec-6-en-14-one]  1.4 µM
5. C[C@]12CCC3C(CC=C4CCCC[C@@]43CO)C1CCC2=O (stereo partly drawn) [(2S,15S)-2-(hydroxymethyl)-15-methyltetracyclo[8.7.0.0^{2,7}.0^{11,15}]heptadec-7-en-14-one]  6.9 µM
6. CC(=O)O[C@@H]1CCC[C@@]2(CO)C1=CCC1C2CC[C@]2(C)C(=O)CCC12 (stereo partly drawn) [(2S,6R,15S)-2-(hydroxymethyl)-15-methyl-14-oxotetracyclo[8.7.0.0^{2,7}.0^{11,15}]heptadec-7-en-6-yl acetate]  11 µM
7. CO[C@H]1CCC[C@@]2(CO)C1=CCC1C2CC[C@]2(C)C(=O)CCC12 (stereo partly drawn) [4beta-Methoxy-19-hydroxyandrost-5-en-17-one]  150 µM

In order of rising Ki:
1. C[C@]12CCC3C(CCC4=CCCC[C@@]43CO)C1CCC2=O (stereo partly drawn) [(2S,15S)-2-(hydroxymethyl)-15-methyltetracyclo[8.7.0.0^{2,7}.0^{11,15}]heptadec-6-en-14-one]  0.0058 µM
2. C[C@]12CCC3C(C[C@@H](O)C4=CCCC[C@@]43CO)C1CCC2=O (stereo partly drawn) [6beta,19-dihydroxyandrost-4-en-17-one]  0.11 µM
3. C[C@]12CCCCC1=CCC1C2CC[C@]2(C)C(=O)CCC12 (stereo partly drawn) [(2R,15S)-2,15-dimethyltetracyclo[8.7.0.0^{2,7}.0^{11,15}]heptadec-7-en-14-one]  0.12 µM
4. C[C@]12CCC3C(C[C@H](O)C4=CCCC[C@@]43CO)C1CCC2=O (stereo partly drawn) [(2S,8S,15S)-8-hydroxy-2-(hydroxymethyl)-15-methyltetracyclo[8.7.0.0^{2,7}.0^{11,15}]heptadec-6-en-14-one]  0.25 µM
5. C[C@]12CCC3C(CC=C4CCCC[C@@]43CO)C1CCC2=O (stereo partly drawn) [(2S,15S)-2-(hydroxymethyl)-15-methyltetracyclo[8.7.0.0^{2,7}.0^{11,15}]heptadec-7-en-14-one]  1 µM
